According to patent US8748415B2 (priority 2011, dated 2014):

Test system: recombinant NL4-3 virus (Renilla luciferase in nef, Gag P373S)
Test: HIV cell culture assay (luciferase activity in MT-2 cells infected with NLRluc recombinant virus)
Type: cell-based
Settings: NL43, MT-2 cells infected 4-5 days with NLRluc recombinant virus
How it was run: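 MT-2 cells in RPMI/10% FBS were infected with recombinant NL4-3 (NLRluc), produced by 293T transfection and titered in MT-2 by luciferase. Serial inhibitor dilutions were present throughout a 4–5 day infection. Antiviral activity was quantified as Renilla luciferase signal via a modified Dual Luciferase read.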

| SMILES | EC50 (class symbol) [nM] | EC50 (numeric value) [nM] |
| --- | --- | --- |
| C=C(C)[C@@H]1CC[C@]2(CNCCCN3CCCC3=O)CC[C@]3(C)[C@H](CC[C@@H]4[C@@]5(C)CC=C(c6ccc(C(=O)O)c(F)c6)C(C)(C)[C@@H]5CC[C@]43C)[C@@H]12 [Example 88, 2-fluoro-4-((1R,3aS,5aR,5bR,7aR,11aS,11bR,13aR,13bR)-5a,5b,8,8,11a-pentamethyl-3a-((3-(2-oxopyrrolidin-1-yl)propylamino)methyl)-1-(prop-1-en-2-yl)-2,3,3a,4,5,5a,5b,6,7,7a,8,11,11a,11b,12,13,13a,13b-octadecahydro-1H-cyclopenta[a]chrysen-9-yl)benzoic acid] | < 100 | – |
| C=C(C)[C@@H]1CC[C@]2(CNC(=O)OCCCN3CCCC3=O)CC[C@]3(C)[C@H](CC[C@@H]4[C@@]5(C)CC=C(c6ccc(C(=O)O)cc6)C(C)(C)[C@@H]5CC[C@]43C)[C@@H]12 [Example 166, 4-((1R,3aS,5aR,5bR,7aR,11aS,11bR,13aR,13bR)-5a,5b,8,8,11a-pentamethyl-3a-(((3-(2-oxopyrrolidin-1-yl)propoxy)carbonylamino)methyl)-1-(prop-1-en-2-yl)-2,3,3a,4,5,5a,5b,6,7,7a,8,11,11a,11b,12,13,13a,13b-octadecahydro-1H-cyclopenta[a]chrysen-9-yl)benzoic acid] | < 100 | – |
| C=C(C)[C@@H]1CC[C@]2(CNC(=O)[C@H]3CCCN3)CC[C@]3(C)[C@H](CC[C@@H]4[C@@]5(C)CC=C(c6ccc(C(=O)O)cc6)C(C)(C)[C@@H]5CC[C@]43C)[C@@H]12 [Example 137, 4-((1R,3aS,5aR,5bR,7aR,11aS,11bR,13aR,13bR)-5a,5b,8,8,11a-pentamethyl-1-(prop-1-en-2-yl)-3a-(((R)-pyrrolidine-2-carboxamido)methyl)-2,3,3a,4,5,5a,5b,6,7,7a,8,11,11a,11b,12,13,13a,13b-octadecahydro-1H-cyclopenta[a]chrysen-9-yl)benzoic acid] | < 100 | – |
| C=C(C)[C@@H]1CC[C@]2(CNC(=O)CCN3CCNCC3)CC[C@]3(C)[C@H](CC[C@@H]4[C@@]5(C)CC=C(c6ccc(C(=O)O)cc6)C(C)(C)[C@@H]5CC[C@]43C)[C@@H]12 [Example 141, 4-((1R,3aS,5aR,5bR,7aR,11aS,11bR,13aR,13bR)-5a,5b,8,8,11a-pentamethyl-3a-((3-(piperazin-1-yl)propanamido)methyl)-1-(prop-1-en-2-yl)-2,3,3a,4,5,5a,5b,6,7,7a,8,11,11a,11b,12,13,13a,13b-octadecahydro-1H-cyclopenta[a]chrysen-9-yl)benzoic acid] | < 100 | – |
| C=C(C)[C@@H]1CC[C@]2(CNCCC(=O)NC(C)(CO)CO)CC[C@]3(C)[C@H](CC[C@@H]4[C@@]5(C)CC=C(c6ccc(C(=O)O)cc6)C(C)(C)[C@@H]5CC[C@]43C)[C@@H]12 [Example 129, 4-((1R,3aS,5aR,5bR,7aR,11aS,11bR,13aR,13bR)-3a-((3-(1,3-dihydroxy-2-methylpropan-2-ylamino)-3-oxopropylamino)methyl)-5a,5b,8,8,11a-pentamethyl-1-(prop-1-en-2-yl)-2,3,3a,4,5,5a,5b,6,7,7a,8,11,11a,11b,12,13,13a,13b-octadecahydro-1H-cyclopenta[a]chrysen-9-yl)benzoic acid] | < 100 | – |
| C=C(C)[C@@H]1CC[C@]2(CNCC(=O)N3CCCCC3)CC[C@]3(C)[C@H](CC[C@@H]4[C@@]5(C)CC=C(c6ccc(C(=O)O)cc6)C(C)(C)[C@@H]5CC[C@]43C)[C@@H]12 [Example 130, 4-((1R,3aS,5aR,5bR,7aR,11aS,11bR,13aR,13bR)-5a,5b,8,8,11a-pentamethyl-3a-((2-oxo-2-(piperidin-1-yl)ethylamino)methyl)-1-(prop-1-en-2-yl)-2,3,3a,4,5,5a,5b,6,7,7a,8,11,11a,11b,12,13,13a,13b-octadecahydro-1H-cyclopenta[a]chrysen-9-yl)benzoic acid] | < 100 | – |
| C=C(C)[C@@H]1CC[C@]2(CNCCCN3CCS(=O)(=O)CC3)CC[C@]3(C)[C@H](CC[C@@H]4[C@@]5(C)CC=C(c6ccc(C(=O)O)c(F)c6)C(C)(C)[C@@H]5CC[C@]43C)[C@@H]12 [Example 93, 4-((1R,3aS,5aR,5bR,7aR,11aS,11bR,13aR,13bR)-3a-(((3-(1,1-dioxido-4-thiomorpholinyl)propyl)amino)methyl)-1-isopropenyl-5a,5b,8,8,11a-pentamethyl-2,3,3a,4,5,5a,5b,6,7,7a,8,11,11a,11b,12,13,13a,13b-octadecahydro-1H-cyclopenta[a]chrysen-9-yl)-2-fluorobenzoic acid] | < 100 | – |
| C=C(C)[C@@H]1CC[C@]2(CNCCC(=O)N3CCC4(CCN(C)C4=O)CC3)CC[C@]3(C)[C@H](CC[C@@H]4[C@@]5(C)CC=C(c6ccc(C(=O)O)cc6)C(C)(C)[C@@H]5CC[C@]43C)[C@@H]12 [Example 123, 4-((1R,3aS,5aR,5bR,7aR,11aS,11bR,13aR,13bR)-5a,5b,8,8,11a-pentamethyl-3a-((3-(2-methyl-1-oxo-2,8-diazaspiro[4.5]decan-8-yl)-3-oxopropylamino)methyl)-1-(prop-1-en-2-yl)-2,3,3a,4,5,5a,5b,6,7,7a,8,11,11a,11b,12,13,13a,13b-octadecahydro-1H-cyclopenta[a]chrysen-9-yl)benzoic acid] | < 100 | – |
| C=C(C)[C@@H]1CC[C@]2(CNCC(=O)OC)CC[C@]3(C)[C@H](CC[C@@H]4[C@@]5(C)CC=C(c6ccc(C(=O)O)cc6)C(C)(C)[C@@H]5CC[C@]43C)[C@@H]12 [Example 30, 4-((1R,3aS,5aR,5bR,7aR,11aS,11bR,13aR,13bR)-3a-((2-methoxy-2-oxoethylamino)methyl)-5a,5b,8,8,11a-pentamethyl-1-(prop-1-en-2-yl)-2,3,3a,4,5,5a,5b,6,7,7a,8,11,11a,11b,12,13,13a,13b-octadecahydro-1H-cyclopenta[a]chrysen-9-yl)benzoic acid] | < 100 | – |
| C=C(C)[C@@H]1CC[C@]2(CNCCCN3C(=O)CCCC3=O)CC[C@]3(C)[C@H](CC[C@@H]4[C@@]5(C)CC=C(c6ccc(C(=O)O)cc6)C(C)(C)[C@@H]5CC[C@]43C)[C@@H]12 [Example 80, 4-((1R,3aS,5aR,5bR,7aR,11aS,11bR,13aR,13bR)-3a-((3-(2,6-dioxopiperidin-1-yl)propylamino)methyl)-5a,5b,8,8,11a-pentamethyl-1-(prop-1-en-2-yl)-2,3,3a,4,5,5a,5b,6,7,7a,8,11,11a,11b,12,13,13a,13b-octadecahydro-1H-cyclopenta[a]chrysen-9-yl)benzoic acid] | < 100 | – |
| C=C(C)[C@@H]1CC[C@]2(CNCc3ccoc3)CC[C@]3(C)[C@H](CC[C@@H]4[C@@]5(C)CC=C(c6ccc(C(=O)O)cc6)C(C)(C)[C@@H]5CC[C@]43C)[C@@H]12 [Example 53, 4-((1R,3aS,5aR,5bR,7aR,11aS,11bR,13aR,13bR)-3a-((furan-3-ylmethylamino)methyl)-5a,5b,8,8,11a-pentamethyl-1-(prop-1-en-2-yl)-2,3,3a,4,5,5a,5b,6,7,7a,8,11,11a,11b,12,13,13a,13b-octadecahydro-1H-cyclopenta[a]chrysen-9-yl)benzoic acid] | < 100 | – |
| C=C(C)[C@@H]1CC[C@]2(CNCCC(=O)N3CCC[C@H]3C(=O)O)CC[C@]3(C)[C@H](CC[C@@H]4[C@@]5(C)CC=C(c6ccc(C(=O)O)cc6)C(C)(C)[C@@H]5CC[C@]43C)[C@@H]12 [Example 102, (S)-1-(3-(((1R,3aS,5aR,5bR,7aR,11aS,11bR,13aR,13bR)-9-(4-carboxyphenyl)-5a,5b,8,8,11a-pentamethyl-1-(prop-1-en-2-yl)-2,3,3a,4,5,5a,5b,6,7,7a,8,11,11a,11b,12,13,13a,13b-octadecahydro-1H-cyclopenta[a]chrysen-3a-yl)methylamino)propanoyl)pyrrolidine-2-carboxylic acid] | < 100 | – |
| C=C(C)[C@@H]1CC[C@]2(CNCCN3CCNC3=O)CC[C@]3(C)[C@H](CC[C@@H]4[C@@]5(C)CC=C(c6ccc(C(=O)O)cc6)C(C)(C)[C@@H]5CC[C@]43C)[C@@H]12 [Example 77, 4-((1R,3aS,5aR,5bR,7aR,11aS,11bR,13aR,13bR)-5a,5b,8,8,11a-pentamethyl-3a-((2-(2-oxoimidazolidin-1-yl)ethylamino)methyl)-1-(prop-1-en-2-yl)-2,3,3a,4,5,5a,5b,6,7,7a,8,11,11a,11b,12,13,13a,13b-octadecahydro-1H-cyclopenta[a]chrysen-9-yl)benzoic acid] | < 100 | – |
| C=C(C)[C@@H]1CC[C@]2(CNCC3CCCN3CC)CC[C@]3(C)[C@H](CC[C@@H]4[C@@]5(C)CC=C(c6ccc(C(=O)O)cc6)C(C)(C)[C@@H]5CC[C@]43C)[C@@H]12 (single isomer, unassigned) [Example 4] | < 100 | – |
| C=C(C)[C@@H]1CC[C@]2(CN3CCCC3=O)CC[C@]3(C)[C@H](CC[C@@H]4[C@@]5(C)CC=C(c6ccc(C(=O)O)cc6)C(C)(C)[C@@H]5CC[C@]43C)[C@@H]12 [Example 29] | – | 1000 |
| C=C(C)[C@@H]1CC[C@]2(CN(C)CCS(=O)(=O)N3CCN(C)CC3)CC[C@]3(C)[C@H](CC[C@@H]4[C@@]5(C)CC=C(c6ccc(C(=O)O)cc6)C(C)(C)[C@@H]5CC[C@]43C)[C@@H]12 [Example 44, 4-((1R,3aS,5aR,5bR,7aR,11aS,11bR,13aR,13bR)-5a,5b,8,8,11a-pentamethyl-3a-((methyl(2-(4-methylpiperazin-1-ylsulfonyl)ethyl)amino)methyl)-1-(prop-1-en-2-yl)-2,3,3a,4,5,5a,5b,6,7,7a,8,11,11a,11b,12,13,13a,13b-octadecahydro-1H-cyclopenta[a]chrysen-9-yl)benzoic acid] | – | 20 |
